Legend:
Pneumocystis carinii = assay: Concentration required to inhibit uptake of [3H]4-aminobenozoic acid over 24 hr against Pneumocystis carinii microorganisms extracted from immunocompromized rats.; conditions: Rattus norvegicus
Dihydrofolate reductase = biological target: T1, Dihydrofolate reductase (Pneumocystis carinii, UniProt P16184)
T1 sequence (P16184 whole entry): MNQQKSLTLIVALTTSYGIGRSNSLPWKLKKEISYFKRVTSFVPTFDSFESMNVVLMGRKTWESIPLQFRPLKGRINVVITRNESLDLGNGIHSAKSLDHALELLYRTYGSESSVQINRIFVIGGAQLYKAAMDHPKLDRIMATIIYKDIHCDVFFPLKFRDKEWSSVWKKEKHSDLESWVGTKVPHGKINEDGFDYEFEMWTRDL
Description: In vitro inhibitory concentration against Pneumocystis carinii dihydrofolate reductase

[1] = biological target: T2, Bifunctional dihydrofolate reductase-thymidylate synthase (Toxoplasma gondii, UniProt Q07422); assay: Inhibitory concentration against Toxoplasma gondii dihydrofolate reductase
T2 sequence (Q07422 whole entry): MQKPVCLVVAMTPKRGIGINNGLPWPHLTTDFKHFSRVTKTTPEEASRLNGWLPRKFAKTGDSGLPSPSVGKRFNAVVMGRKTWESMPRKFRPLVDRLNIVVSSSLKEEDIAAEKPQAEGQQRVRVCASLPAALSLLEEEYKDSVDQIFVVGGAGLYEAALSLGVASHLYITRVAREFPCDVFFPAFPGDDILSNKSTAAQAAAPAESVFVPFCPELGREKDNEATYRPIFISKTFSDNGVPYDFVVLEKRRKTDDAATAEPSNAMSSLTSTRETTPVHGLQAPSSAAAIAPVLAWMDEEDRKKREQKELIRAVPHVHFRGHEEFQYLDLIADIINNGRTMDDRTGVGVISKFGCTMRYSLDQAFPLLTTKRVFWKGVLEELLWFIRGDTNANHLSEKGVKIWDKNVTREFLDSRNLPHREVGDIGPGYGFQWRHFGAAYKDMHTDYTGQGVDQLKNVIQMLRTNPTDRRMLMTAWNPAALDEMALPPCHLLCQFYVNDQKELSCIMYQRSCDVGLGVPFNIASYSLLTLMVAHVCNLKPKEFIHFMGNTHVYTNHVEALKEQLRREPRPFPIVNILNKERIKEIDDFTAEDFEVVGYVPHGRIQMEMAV

[2] = Selectivity index measured as the ratio of IC50 for rat liver DHFR to IC50 for Toxoplasma gondii DHFR.

Row | Compound | IC50 (Dihydrofolate reductase) [µM] | also measured
1 | N=C(N)c1ccc(OCCCCCOc2ccc(C(=N)N)cc2)cc1 | – | IC50 (Pneumocystis carinii): 2.5 µM
2 | CCCN(C)/N=N/c1cc(-c2c(N)nc(N)nc2CC)ccc1Cl [listing 1 of 2 here] | 7.6 | –
3 | CCc1nc(N)nc(N)c1-c1ccc(Cl)c(/N=N/N(C)C)c1 [listing 1 of 2 here] | 2.8 | IC50 [1]: 0.31 µM
4 | CCCN(C)/N=N/c1cc(-c2c(N)nc(N)nc2CC)ccc1Cl [listing 2 of 2 here] | 10.2 | –
5 | CCc1nc(N)nc(N)c1-c1ccc(Cl)c(/N=N/N(C)CC)c1 [listing 1 of 2 here] | 14.1 | –
6 | CCc1nc(N)nc(N)c1-c1ccc(Cl)c(/N=N/N(C)CC2OCCO2)c1 | 0.57 | Selectivity index [2]: 28
7 | CCc1nc(N)nc(N)c1-c1ccc(Cl)c(/N=N/N(CCO)CCO)c1 | 0.44 | IC50 (Pneumocystis carinii): 46.6 mg/L
8 | CCc1nc(N)nc(N)c1-c1ccc(N(C)Cc2ccccc2)c([N+](=O)[O-])c1 | – | IC50 [1]: 0.091 µM
9 | CCc1nc(N)nc(N)c1-c1ccc(Cl)c(/N=N/N(CCOC(C)=O)Cc2ccccc2)c1 | – | IC50 (Pneumocystis carinii): 43.9 mg/L
10 | CCc1nc(N)nc(N)c1-c1ccc(Cl)c(/N=N/N2CCOCC2)c1 | – | IC50 [1]: 0.19 µM; IC50 (Pneumocystis carinii): 49.7 mg/L
11 | CCc1nc(N)nc(N)c1-c1ccc(Cl)c(/N=N/N(CCOC)CCOC)c1 | – | IC50 [1]: 8.8 µM; Selectivity index [2]: 3; IC50 (Pneumocystis carinii): 30.5 mg/L
12 | CCc1nc(N)nc(N)c1-c1ccc(Cl)c(/N=N/N2CCN(C)CC2)c1 | 8.5 | –
13 | CCc1nc(N)nc(N)c1-c1ccc(Cl)c(/N=N/N(C)CC)c1 [listing 2 of 2 here] | 6.6 | –
14 | CCc1nc(N)nc(N)c1-c1ccc(Cl)c(N=[N+]=[N-])c1 | 1.33 | IC50 [1]: 0.69 µM; Selectivity index [2]: 0.5
15 | CCc1nc(N)nc(N)c1-c1ccc(Cl)c(/N=N/N2CCC(O)CC2)c1 | 3.3 | –
16 | CCc1nc(N)nc(N)c1-c1ccc(Cl)c(/N=N/N(CCO)Cc2ccccc2)c1 | 0.26 | IC50 (Pneumocystis carinii): 11.1 mg/L
17 | CCc1nc(N)nc(N)c1-c1ccc(Cl)c([N+]#N)c1 | – | IC50 [1]: 0.023 µM
18 | CCc1nc(N)nc(N)c1-c1ccc(Cl)c(/N=N/N2CCCCC2)c1 | 40.4 | –
19 | CCc1nc(N)nc(N)c1-c1ccc(Cl)c(/N=N/N(CCO)C(C)(C)C)c1 | 4.9 | –
20 | CCc1nc(N)nc(N)c1-c1ccc(Cl)c(/N=N/N(C)C)c1 [listing 2 of 2 here] | 6 | –
21 | CCc1nc(N)nc(N)c1-c1ccc(Cl)c(/N=N/N(CC)CCO)c1 | 11.5 | –
22 | CCc1nc(N)nc(N)c1-c1ccc(Cl)c(/N=C/N(C)C)c1 | 10.6 | IC50 [1]: 1.6 µM
23 | CCc1nc(N)nc(N)c1-c1ccc(Cl)c(/N=N/N2CCCC2)c1 | > 11 | –
24 | CCCN(CCO)/N=N/c1cc(-c2c(N)nc(N)nc2CC)ccc1Cl | 2.5 | –
25 | CCc1nc(N)nc(N)c1-c1ccc(Cl)c(/N=N/N(C)CCO)c1 | 3.5 | –
26 | CCc1nc(N)nc(N)c1-c1ccc(Cl)c(/N=N/N(C(C)(C)C)C(C)(C)C)c1 | > 11 | –
27 | CCc1nc(N)nc(N)c1-c1ccc(Cl)c(/N=N/N(C)Cc2ccccc2)c1 | 0.57 | –
28 | CCc1nc(N)nc(N)c1-c1ccc(Cl)c([N+](=O)[O-])c1 | – | IC50 [1]: 0.013 µM; Selectivity index [2]: 1.1
29 | CCc1nc(N)nc(N)c1-c1ccc(Cl)c(/N=N/N2CCc3ccccc3C2)c1 | 5 | –

Source: ChEMBL document CHEMBL1130062 (J Med Chem, 1997)
